In patent publication US9402839B2, “Selective targeting agents for mitochondria” (University of Pittsburgh—Of the Commonwealth System of …, priority 2006, dated 2016):

Legend:
caspases 3 and 7 = assay: Caspases 3 and 7 activity assay in rat gut mucosa homogenate after hemorrhagic shock; assay type: in vivo; settings: intraluminal 10 μM versus vehicle
Method: After 2 h of shock, the animals were euthanized with an intracardiac KCl bolus injection. The ileum was rapidly excised from the ileocecal valve to the most proximal gut segment. The tips of each segment were discarded. In order to assay caspases 3 and 7 activity and phospholipids peroxidation, mucosa samples were collected from gut segments immediately after hemorrhage and stored at −80° C. For permeability measurements, each segment was converted into an everted gut sac, as previously described by Wattanasirichaigoon et al., see Wattanasirichaigoon, S. et al., Effect of mesenteric ischemia and reperfusion or hemorrhagic shock on intestinal mucosal permeability and ATP content in rats, SHOCK, 12:127-133 (1999).
Caspases 3 and 7 activity assay. Caspases 3 and 7 activity was measured using a commercially available assay kit, CASPASE GLO™ 3/7 assay kit (PROMEGA, Madison, Wis.). […] At the end of incubation period, the luminescence of each sample was measured using a plate reading chemiluminometer (ML1000, DYNATECH LABORATORIES, Horsham, Pa.). Activity of caspases 3 and 7 was expressed as luminescence intensity (arbitrary units per mg protein). Protein concentrations were determined using the BIORAD assay (BIO-RAD LABORATORIES, Inc., Hercules, Calif.). […]

[1] = system: Caco-2BBe human enterocyte-like monolayers; assay: Permeability of Caco-2 monolayers exposed to menadione (FD4 clearance); assay type: cell-based; settings: 10 μM apical, menadione 50 μM, 6 hours
Method: Cells. Caco-2BBe human enterocyte-like epithelial cells were obtained from the AMERICAN TYPE CULTURE COLLECTION (Manassas, Va.). Cells were routinely maintained at 37° C. in under a humidified atmosphere containing 8% CO2 in air. The culture medium was DMEM supplemented with 10% FBS, non-essential amino acids supplement (SIGMA-ALDRICH catalogue #M7145), sodium pyruvate (2 mM), streptomycin (0.1 mg/ml), penicillin G (100 U/ml) and human transferrin (0.01 mg/ml). The culture medium was changed 3 times per week.
Measurement of permeability of Caco-2 monolayers. Caco-2BBe cells were plated at a density of 5×10^4 cells/well on permeable filters (0.4 μm pore size) in 12-well bicameral chambers (TRANSWELL, COSTAR, Corning, N.Y.).
Briefly, the medium on the basolateral side was replaced with control medium or medium containing menadione (50 μM final). Medium containing FD4 (25 mg/ml) was applied to the apical chamber. In some cases, one of the gramicidin S-based compounds, XJB-5-131, also was added to the apical side at final concentrations of 0.1, 1, 10 or 100 μM. […] Permeability of the monolayers was expressed as a clearance (pL·h^−1·cm^−2), see Han, X. et al., Proinflammatory cytokines cause NO dependent and independent changes in expression and localization of tight junction proteins in intestinal epithelial cells, SHOCK 19:229-237 (2003). […]

CC(C)C[C@@H](/C=C/[C@H](Cc1ccccc1)C(=O)N1CCC[C@H]1C(=O)N[C@H](C(=O)N[C@@H](CCCNC(=O)OCc1ccccc1)C(=O)NC1CC(C)(C)N([O])C(C)(C)C1)C(C)C)NC(=O)OC(C)(C)C [XJB-5-131]
caspase 3 and 7 activity in ileal mucosa after hemorrhagic shock (caspases 3 and 7): significantly decreased | protection against menadione-induced hyperpermeability [1]: significant protection
